Source: patent publication US7504401B2, “Anti-cancer agents and uses thereof” (Locus Pharmaceuticals, Inc., priority 2003, dated 2009)

Assays:
Assay type in all cases: cell-based
Hela cells = assay: Cell viability assay (WST-1 colorimetric mitochondrial reduction), Example 125; settings: Homo sapiens, 0.5% fetal calf serum, 48-72 hrs
Procedure: Jurkat and Hela cells were cultured in RPMI and EMEM media, respectively, containing 0.5% fetal calf serum. Cells were plated in a volume of 100 μL in a 96 well format. Test compounds were included in the culture media at concentrations ranging from 1 nM to 10 μM for a period of 48-72 hrs. […] Briefly, 10 μL of WST-1 reagent was included in the culture well for a period of 1 to 4 hrs. The WST-1 reaction was read on a multiwell spectrophotometer as the difference in the absorbance between 450 nm and 600 nm (baseline). Absorbance was proportional to the number of living cells in the culture well. Concentration response curves and IC50 values were calculated using GraphPAD Prism graphing and curve fitting program.

[1] = system: MCF-7 breast cancer cells; assay: Cell cycle assay, flow cytometry with propidium iodide, Example 126; settings: MCF-7 cells, 24 h, 0.5% FCS, Table 2
Procedure: (§1) MCF-7 breast cancer cells and Jurkat T-cell leukemic cells were grown (and maintained) in EMEM and RPMI media, respectively, containing 10% fetal calf serum.
Cells were allowed to adhere for 24 hrs. After adherence, cell culture media was changed to that containing 0.5% FCS. Thirty minutes post-media change, test compounds were added at a concentration of 1 μM. Twenty-fours after test agent addition, cells were analyzed for cell cycle status as described below.
(§2) Cell cycle status was analyzed by flow cytometry. Briefly, cells were collected and washed with FACs buffer (Pharmingen) and resuspended and fixed in 1 mL of 80% ethanol for 1 hr. Cells were washed with FACs buffer and resuspended in propidium iodide(PI)/RNase staining buffer (Pharmingen). PI is a fluorescent dye that labels nucleic acids such as DNA. The fluorescence within a cell (in the presence of PI) is proportional to the amount of DNA within a cell. The cell content of DNA is an indices of status in the cell cycle. […] Cells in the S phase have DNA content that lies between these extremes.
(§3) For testing of cell cycle effects of test agents the percentage of cells within the G1 and G2/M phase were measured.

[2] = system: Jurkat T-cell leukemic cells; assay: as above; settings: 24 h, 0.5% serum, Table 2
Procedure: as §1
Test agents were added a concentration of 0.1 μM. Twenty-fours after test agent addition, cells were analyzed for cell cycle status as described below.
as §2, §3

| SMILES | IC50 (Hela cells) [µM] | MCF-7 G2/M Block 1 μM [1] | Jurkat G2/M Block 0.1 μM [2] |
| --- | --- | --- | --- |
| CC(=O)N(c1cccnc1)c1cccc(-c2cccc3[nH]ccc23)c1 [N-[3-(1H-Indol-4-yl)-phenyl]-N-pyridin-3-yl-acetamide] | 1 to 30 |  |  |
| [O-][n+]1cccc(Nc2cc(O)cc(-c3cccc4[nH]ccc34)c2)c1 [3-(1H-Indol-4-yl)-5-(1-oxy-pyridin-3-ylamino)-phenol] |  | Y (Y indicates a 50% or greater increase in the number of cells in the G2/M phase, as compared to control) | Y (Y indicates a 50% or greater increase in the number of cells in the G2/M phase, as compared to control) |
